The NIST ThermoML archive (doi:10.1021/je5010214)
± gives the expanded uncertainty stated by the source.

Conditions: Liquid, Vibrating tube method

CCCCO [butan-1-ol]
Conditions	mass density [kg/m3]
293.15 K, 9042.1 kPa	816.992 ± 0.81
293.15 K, 10036 kPa	817.626 ± 0.82
293.15 K, 11947 kPa	818.963 ± 0.82
293.15 K, 14941 kPa	820.924 ± 0.82
293.15 K, 21987 kPa	825.417 ± 0.83
293.15 K, 27986 kPa	829.06 ± 0.84
293.15 K, 28066 kPa	829.163 ± 0.84
293.15 K, 33151 kPa	832.036 ± 0.85
293.15 K, 34099 kPa	832.526 ± 0.85
293.15 K, 35000 kPa	833.078 ± 0.85
293.15 K, 40081 kPa	835.959 ± 0.86
293.15 K, 42099 kPa	837.008 ± 0.86
293.15 K, 45068 kPa	838.658 ± 0.87
293.15 K, 54966 kPa	843.81 ± 0.89
293.15 K, 58072 kPa	845.282 ± 0.9
293.15 K, 66045 kPa	849.224 ± 0.91
293.16 K, 305.2 kPa	810.686 ± 0.81
293.16 K, 476.4 kPa	810.81 ± 0.81
293.16 K, 1045.2 kPa	811.221 ± 0.81
293.16 K, 7096.8 kPa	815.616 ± 0.81
293.16 K, 17889 kPa	822.832 ± 0.83
293.16 K, 19992 kPa	824.147 ± 0.83
293.16 K, 24983 kPa	827.251 ± 0.84
293.16 K, 29976 kPa	830.11 ± 0.84
293.16 K, 32232 kPa	831.521 ± 0.85
293.16 K, 38027 kPa	834.783 ± 0.86
293.16 K, 48022 kPa	840.192 ± 0.88
293.16 K, 50085 kPa	841.31 ± 0.88
293.16 K, 52032 kPa	842.308 ± 0.88
293.16 K, 60018 kPa	846.257 ± 0.9
293.16 K, 61962 kPa	847.209 ± 0.9
293.16 K, 64991 kPa	848.649 ± 0.91
298.15 K, 98.1 kPa	806.282 ± 0.81
298.15 K, 305.4 kPa	806.45 ± 0.81
298.15 K, 854.5 kPa	806.874 ± 0.81
298.15 K, 1980.9 kPa	807.747 ± 0.81
298.15 K, 3167.8 kPa	808.637 ± 0.81
298.15 K, 5067.6 kPa	810.04 ± 0.81
298.15 K, 7065.3 kPa	811.55 ± 0.81
298.15 K, 10107 kPa	813.67 ± 0.82
298.15 K, 20128 kPa	820.445 ± 0.83
298.15 K, 22004 kPa	821.641 ± 0.83
298.15 K, 25081 kPa	823.55 ± 0.84
298.15 K, 33113 kPa	828.365 ± 0.85
298.15 K, 33924 kPa	828.845 ± 0.85
298.15 K, 38097 kPa	831.213 ± 0.86
298.15 K, 40161 kPa	832.357 ± 0.86
298.15 K, 42029 kPa	833.462 ± 0.87
298.15 K, 42359 kPa	833.614 ± 0.87
298.15 K, 45021 kPa	835.052 ± 0.87
298.15 K, 48107 kPa	836.745 ± 0.88
298.15 K, 50068 kPa	837.797 ± 0.88
298.15 K, 55016 kPa	840.375 ± 0.89
298.15 K, 57931 kPa	841.819 ± 0.9
298.15 K, 59914 kPa	842.826 ± 0.9
298.15 K, 62036 kPa	843.934 ± 0.91
298.15 K, 65018 kPa	845.412 ± 0.91
298.16 K, 493.7 kPa	806.599 ± 0.81
298.16 K, 1012.6 kPa	806.992 ± 0.81
298.16 K, 9120.9 kPa	813.012 ± 0.81
298.16 K, 11970 kPa	814.957 ± 0.82
298.16 K, 15220 kPa	817.234 ± 0.82
298.16 K, 17984 kPa	819.076 ± 0.83
298.16 K, 28040 kPa	825.42 ± 0.84
298.16 K, 30089 kPa	826.686 ± 0.85
298.16 K, 32030 kPa	827.814 ± 0.85
298.16 K, 35217 kPa	829.575 ± 0.85
298.16 K, 52020 kPa	838.835 ± 0.89
298.16 K, 66118 kPa	845.919 ± 0.92
303.15 K, 304.1 kPa	802.278 ± 0.81
303.15 K, 498.9 kPa	802.435 ± 0.81
303.15 K, 900.6 kPa	802.733 ± 0.81
303.15 K, 979.1 kPa	802.787 ± 0.81
303.15 K, 1977.6 kPa	803.554 ± 0.81
303.15 K, 4930.4 kPa	805.792 ± 0.81
303.15 K, 11975 kPa	810.901 ± 0.82
303.15 K, 15044 kPa	812.956 ± 0.82
303.15 K, 19974 kPa	816.207 ± 0.83
